From patent publication US20030139427A1, “Bicyclic pyrimidinyl derivatives and methods of use thereof” (OSI Pharmaceuticals Inc., priority 2002, published 2003)
Where two headings read alike, the source gives them in different places.

Columns and labels:
[1] = biological target: T1, human A2b receptor subtype (Homo sapiens, UniProt P29275); assay: Adenosine 2b receptor subtype competition radioligand binding, [3H]DPCPX, HEK293 membranes
T1 construct: purchased Receptor Biology (Beltsville, Md.) RB-HA2b; host or cells: HEK-293, stably expressing
T1 sequence (P29275 1-332): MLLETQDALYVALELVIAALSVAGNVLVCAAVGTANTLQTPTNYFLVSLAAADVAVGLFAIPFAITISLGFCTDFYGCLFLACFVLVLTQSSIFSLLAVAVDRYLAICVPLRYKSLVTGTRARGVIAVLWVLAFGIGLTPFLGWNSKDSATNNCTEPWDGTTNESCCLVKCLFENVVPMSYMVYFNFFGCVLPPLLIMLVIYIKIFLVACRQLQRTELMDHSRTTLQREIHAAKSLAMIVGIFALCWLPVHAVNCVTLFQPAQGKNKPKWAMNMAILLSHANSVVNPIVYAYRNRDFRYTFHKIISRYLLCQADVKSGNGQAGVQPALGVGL

[2] = biological target: T2, human A2a receptor subtype (Homo sapiens, UniProt P29274); assay: Adenosine 2a receptor subtype competition radioligand binding, [3H]CGS-21680, HEK293 membranes
T2 construct: purchased Receptor Biology (Beltsville, Md.) RB-HA2a; host or cells: HEK-293, stably expressing
T2 sequence (P29274 whole entry): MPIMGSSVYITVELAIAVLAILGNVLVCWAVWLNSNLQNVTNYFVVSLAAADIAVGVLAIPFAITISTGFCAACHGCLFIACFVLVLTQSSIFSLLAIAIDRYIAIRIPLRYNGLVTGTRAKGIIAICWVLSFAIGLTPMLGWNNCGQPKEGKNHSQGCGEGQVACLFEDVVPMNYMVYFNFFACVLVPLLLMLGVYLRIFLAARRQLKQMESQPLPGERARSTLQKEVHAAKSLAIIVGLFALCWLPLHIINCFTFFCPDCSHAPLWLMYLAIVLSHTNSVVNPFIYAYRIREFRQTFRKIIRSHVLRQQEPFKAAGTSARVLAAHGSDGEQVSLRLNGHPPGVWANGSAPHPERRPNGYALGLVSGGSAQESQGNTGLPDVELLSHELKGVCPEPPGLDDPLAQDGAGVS

PDE4 (Human) = assay: PDE4 inhibition; format: biochemical
[3] = biological target: T3, human A1 receptor subtype (Homo sapiens, UniProt P30542); assay: biochemical
T3 sequence (P30542 1-326): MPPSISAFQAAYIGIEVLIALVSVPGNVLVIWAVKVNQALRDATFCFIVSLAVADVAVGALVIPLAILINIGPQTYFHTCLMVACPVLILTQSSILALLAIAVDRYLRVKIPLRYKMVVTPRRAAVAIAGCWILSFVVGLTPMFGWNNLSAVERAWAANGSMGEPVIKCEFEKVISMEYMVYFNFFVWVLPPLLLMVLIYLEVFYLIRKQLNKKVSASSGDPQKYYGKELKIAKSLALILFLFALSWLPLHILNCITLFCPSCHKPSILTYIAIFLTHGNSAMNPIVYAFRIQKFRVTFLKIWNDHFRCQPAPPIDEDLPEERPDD

[4] = biological target: T4, human A3 receptor subtype (Homo sapiens, UniProt P0DMS8); assay: Adenosine 3 receptor competition radioligand binding, [125I]AB-MECA, HEK293 membranes
T4 construct: purchased Receptor Biology (Beltsville, Md.) RB-HA3; host or cells: HEK-293, stably expressing
T4 sequence (P0DMS8 1-318): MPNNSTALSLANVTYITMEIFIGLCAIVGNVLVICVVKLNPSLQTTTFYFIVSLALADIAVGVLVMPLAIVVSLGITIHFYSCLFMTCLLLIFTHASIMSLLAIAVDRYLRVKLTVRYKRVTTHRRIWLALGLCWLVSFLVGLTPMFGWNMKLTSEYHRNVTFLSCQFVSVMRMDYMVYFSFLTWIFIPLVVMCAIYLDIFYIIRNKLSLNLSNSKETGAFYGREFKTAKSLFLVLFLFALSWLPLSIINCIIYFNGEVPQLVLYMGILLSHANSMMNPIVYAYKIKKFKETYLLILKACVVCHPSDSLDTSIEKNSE

[5] = biological target: T3, human A1 receptor subtype; details: for Ki: read-out: A1 Binding Ki, Tables 7-13, deazapurine analogues
hA3R = biological target: T5, hA3R (Homo sapiens, UniProt P0DMS8); assay: Displacement binding of [3H]CPX, yeast membranes expressing human A3 receptor; details: read-out: IC50 [nM] hA3R, 0.4 nM [3H]CPX
T5 sequence (P0DMS8 1-318): T4 sequence (P0DMS8 1-318)

| Ki ([1]; Table 6, read-out: Ki − A2B) | Ki ([2]; Table 6, read-out: Ki − A2A) | Ki [3] | Structure (SMILES) | also measured |
| --- | --- | --- | --- | --- |
| 69.3 nM | 96.8 nM | 1.5 nM | O[C@H]1CC[C@H](Nc2nc(-c3ccccc3)nc3[nH]cnc23)CC1 | PDE4 (Human) Inhibition at 10 μM (PDE4 (Human)): 79%; Ki ([4]; Table 6, read-out: Ki − A3): 174 nM |
| 32.1 nM | 49.5 nM | 11.4 nM | CC(=O)NCCNc1nc(-c2ccccc2)nc2[nH]ncc12 |  |
| 22 nM | 24.8 nM | 7.4 nM | CC(=O)NCCNc1nc(-c2ccccc2)nc2[nH]cnc12 |  |
| 5560 nM | 5540 nM | 81.3 nM | NC(=O)[C@@H]1CCCN1c1nc(-c2ccccc2)nc2[nH]nnc12 |  |
|  |  |  | CNC(=O)NCCCNc1nc(-c2ccccc2)nc2[nH]c(C)c(C)c12 [Compound 1310] | A2a, value printed as % in Ki column ([2]; Table 14): 76% |
| 97.4 nM | 66.8 nM | 0.6 nM | NC(=O)[C@@H]1CCCN1c1nc(-c2ccccc2)nc2[nH]ncc12 | PDE4 (Human) Inhibition at 10 μM (PDE4 (Human)): 34%; Ki ([4]; Table 6, read-out: Ki − A3): 261 nM |
|  |  |  | O[C@H]1CC[C@H](Nc2nc(-c3ccccc3)nc3[nH]c(CN4CCOCC4)cc23)CC1 [Compound 1503] | Ki-A1 (Adenosine A1 Receptor Selective Compounds) ([5]; selectivity versus other three subtypes): * (at least 10 times more selective than other three subtypes.) |
| 63.1 nM | 19.1 nM | 0.9 nM | NC(=O)[C@@H]1CCCN1c1nc(-c2ccccc2)nc2[nH]cnc12 |  |
|  |  |  | O[C@H]1CC[C@H](Nc2nc(-c3ccncc3)nc3[nH]ccc23)CC1 [Compound 1321] | A3, % activity @ 10 μM ([4]; Table 14, 10 μM): 54%^8 |
|  |  |  | CC(=O)NCCNc1nc(-c2ccccc2)nc2[nH]c(C)c(C)c12 [Compound 1300] | Ki [2]: 18 to 48.6 nM |
|  |  |  | Cc1[nH]c2nc(-c3ccccc3)nc(NC3CCC(OC(=O)c4ccccc4)CC3)c2c1C (stereo not drawn) [Compound 606] | Ki [5]: 298 nM |
| 1480 nM | 243 nM | 76.7 nM | NC(=O)[C@H]1CCCN1c1nc(-c2ccccc2)nc2[nH]ncc12 |  |
|  |  |  | O=c1nc2[nH]c3ccccc3nc-2c(=O)[nH]1 [Alloxazine] | IC50 (hA3R): 8220 nM |
| 1460 nM | 432 nM | 4.4 nM | O[C@H]1CC[C@H](Nc2nc(-c3ccccc3)nc3[nH]ncc23)CC1 | PDE4 (Human) Inhibition at 10 μM (PDE4 (Human)): 89%; Ki ([4]; Table 6, read-out: Ki − A3): 664 nM |
| 168 nM | 21.1 nM | 12.3 nM | NC(=O)[C@H]1CCCN1c1nc(-c2ccccc2)nc2[nH]cnc12 |  |
|  |  |  | Cc1[nH]c2nc(-c3ccccc3)nc(NC3CCC(OC(=O)c4ccccc4)CC3)c2c1C (stereo not drawn) [Compound 611] | Ki [5]: 786 nM |
|  |  |  | Cc1[nH]c2nc(-c3ccccc3)nc(N[C@H]3CC[C@H](O)CC3)c2c1C [Compound 1304] | Ki ([1]; Table 14, read-out: Binding Ki (nM) A2b): 138 nM; Ki ([4]; Table 14, read-out: Binding Ki (nM) A3): 21.5 nM |
| 4210 nM | 1530 nM | 52.4 nM | O[C@H]1CC[C@H](Nc2nc(-c3ccccc3)nc3[nH]nnc23)CC1 |  |
